Our source for the inhibition and EC50 values is US6509373B1, “Strain of streptomyces, and relevant uses thereof” (Development Center for Biotechnology, priority 1998, dated 2003).

In brackets after ≈: the same amount, converted by molar mass.

What all share (assay): Antifungal activity of isolated borrelidin in vitro
The subject of one experiment is P. capsici. Type of experiment: cell-based. Conditions: Phytophthora capsici. As for the experimental part: (§1) 1. The antifungal activity of the isolated borrelidin was tested against P. aphanidermatum, P. splendens, P. sylvaticum, P. capsici and Phytophthora ultimum in vitro.
(§2) 2. The isolated borrelidin was dissolved in methanol. Pasteurized, molten PDA (50 ml) was allowed to cool to 50° C. and mixed with 0.1 ml of borrelidin in methanol. Each fungal strain was tested at a specific concentration (max. 0.2 mg/l), or diluted concentration. A series of five concentrations was used to determine EC50 (the concentration at which 50% fungal growth is inhibited).
(§3) 3. PDA medium (50 ml) was mixed with 0.1 ml of borrelidin in methanol.
(§4) 4. The pathogenic fungi (2 mm mass) were inoculated. A microtitration plate added with methanol was used as control. The inhibition (%) was calculated when the control was fully covered with fungal mass, and EC50 was determined.

In the next experiment the test system is P. aphanidermatum. The class given is cell-based. The note with it: Pythium aphanidermatum. As for the experimental part: as §1, §2, §3, §4
The test system of another experiment is P. sylvaticum. Type of experiment: cell-based, Pythium sylvaticum. Conditions: Globisporangium sylvaticum. As for the experimental part: as §1, §2, §3, §4
The test system of a further experiment is P. splendens. The class given is cell-based, Pythium splendens. Conditions: Globisporangium splendens. As for the experimental part: as §1, §2, §3, §4
Another experiment relates to P. ultimum. The class given is cell-based, Pythium ultimum. The note with it: Globisporangium ultimum. The method, then: as §1, §2, §3, §4
Setting [1] is: 0.025 mg/l in PDA, read-out: Growth Inhibition (%).
Where [2] appears, read: 0.05 mg/l in PDA, read-out: Growth Inhibition (%).
Where [3] appears, read: 0.2 mg/l in PDA, read-out: Growth Inhibition (%).
Setting [4] is: concentration at which 50% fungal growth is inhibited.

Turning to `CC1CC(C)CC(C)C(O)/C(C#N)=C\C=C\CC(C2CCCC2C(=O)O)OC(=O)CC(O)C(C)C1` (centres unmarked) [borrelidin, 2-[7-cyano-8,16-dihydro-9,11,13,15-tetramethyl-18-oxooxacyclooctadeca-4,6(E, Z)-diene-2-yl]cyclopentacarboxylic acid], the inhibition (in general, how much of the control response was suppressed) at 0.025 µg/mL stood at 41% with P. capsici (setting [1]); 14% with P. aphanidermatum (setting [1]); 80% in the experiment on P. sylvaticum (setting [1]); 36% with P. splendens (setting [1]); 0% in the experiment with P. ultimum (setting [1]). In addition, the inhibition at 0.05 µg/mL in the experiment with P. capsici (setting [2]) amounted to 70%; with P. aphanidermatum (setting [2]), 45%; in the experiment with P. sylvaticum (setting [2]), 99%; in the experiment on P. splendens (setting [2]) it was 70%; in the experiment with P. ultimum (setting [2]) it was 17%. Also, the inhibition at 0.2 µg/mL with P. capsici (setting [3]) stood at 92%; in the experiment with P. aphanidermatum (setting [3]) it was 99%; with P. sylvaticum (setting [3]), 100%; in the experiment on P. splendens (setting [3]) it was 99%; in the experiment with P. ultimum (setting [3]), 83%. Besides, the EC50 (as a rule, the concentration that produces a half-maximal response) in the experiment on P. capsici (setting [4]) amounted to 0.027 µg/mL (≈ 0.0551 µM); in the experiment on P. aphanidermatum (setting [4]), 0.06 µg/mL (≈ 0.123 µM); in the experiment on P. sylvaticum (setting [4]) it was 0.01 µg/mL (≈ 0.0204 µM); in the experiment with P. splendens (setting [4]), 0.03 µg/mL (≈ 0.0613 µM); in the experiment with P. ultimum (setting [4]) it was 0.1 µg/mL (≈ 0.204 µM).
